Source: patent publication US7482486B2, “Methods for the preparation and formulation of magnesium valproate hydrate” (BioLink Life Sciences, Inc., priority 2005, dated 2009)

Columns and labels:
[1] = background statement; cited from earlier work
[2] = in comparison with sodium valproate or valproic acid; cited from earlier work
[3] = test system: deacetylase; settings: dose between 20 and 40 mg/kg; patients with cervical cancer; cited from earlier work
[4] = cited from earlier work
[5] = Stability of the solid during storage; assay type: physicochemical; settings: ambient conditions where stated, hydrate
[6] = Hygroscopicity / deliquescence of the solid; assay type: physicochemical; settings: isolated solid
[7] = test system: epileptic patients; assay: Open, comparative clinical trial in epileptic patients versus sodium valproate; settings: expected
Text: The therapeutic benefit of magnesium valproate hydrate of the present invention is compared with that of sodium valproate in an open, comparative clinical trial in epileptic patients. […] Then treatment is substituted with magnesium valproate hydrate (alone or combined with other drugs) for 3 months.

[8] = after 3 months of magnesium valproate hydrate, substituted for sodium valproate

CCCC(CCC)C(=O)O [divalproex sodium]
hygroscopicity [1]: not hygroscopic

CCCC(CCC)C(=O)[O-].[Na+] [Sodium valproate]
hygroscopicity [1]: hygroscopic

2-propylpentanoic acid magnesium salt [magnesium valproate]
absorption rate [2]: slower and more regular absorption rate
deacetylase activity and histone acetylation in tumor tissues [3]: inhibits deacetylase activity and hyperacetylates histones

CCCC(CCC)C(=O)O [Valproic acid, 2-propylpentanoic acid]
solubility in water [4]: very slightly soluble in water

magnesium valproate hydrate
stability during storage [5]: stable during storage under ambient conditions
hygroscopicity / deliquescence [6]: not hygroscopic or deliquescent
number of patients with no convulsions or only occasional convulsions [7, 8]: increase significantly
percentage of patients without convulsions [7, 8]: increase significantly
side effects (e.g., gastric discomfort or ulceration, malaise) ([7]; versus sodium valproate): fewer side effects
